The source of these data is patent US20170307610A1, “COMPOUNDS THAT BIND DYSTROGLYCAN AND USES THEREOF” (OREGON HEALTH & SCIENCE UNIVERSITY, priority 2014, published 2017).

Experiment [1] relates to MDA-MB-231 human breast cancer cells. In words: Laminin internalization in vector or LARGE expressing cells, flow cytometry. It is filed as cell-based. From the text: (§1) Loss of DG's laminin binding function is a cause of some congenital muscular dystrophies (CMDs) and is a frequent defect in cancers including those of the breast, prostate, colon, and brain (Akhavan A et al, 2012 supra; Beltran-Valero de Bernabe et al, 2009 infra). This loss of function arises from altered glycosylation of DG and can be restored in many carcinoma and glioblastoma cells by expression of the enzyme LARGE, a glycosyltransferase that confers laminin-binding properties to DG (Akhavan et al., 2012; Beltran-Valero de Bernabe D et al, J Biol Chem 284, 11279-11284 (2009); incorporated by reference herein. Based on these facts in light of the disclosure herein, it was hypothesized that laminin internalization would be severely disrupted in cancer cells lacking DG activity and enhanced by the restoration of such activity. This hypothesis was tested in MDA-MB-231 human breast cancer cells and LN18 human glioma cells, both of which lack DG glycosylation and function. […] Expression of LARGE restored normal glycosylation of DG as determined by western blot analysis with IIH6 antibody (FIG. 10A, LARGE) and functional interaction of DG in the laminin assembly assay (FIG. 10B, LARGE). These cells were subsequently assayed for laminin internalization by flow cytometry.
(§2) Flow Cytometry—Cells were plated in 12 well plates at 200,000 cells/well. The following day, media was changed to serum-free media with or without 10 μg/ml rhodamine laminin or 40 μg/ml FITC-dextran (500S-Sigma-Aldrich Corp., St. Louis, Mo., USA). Unless otherwise indicated, cells were incubated 18-24 hrs, washed once with PBS, and cells trypsinized. Cells were washed in 5 ml cold PBS/1 mM EDTA, pelleted, and resuspended in 1 ml PBS/1 mM EDTA. Using a BD FACScan flow cytometer (BD Biosciences, San Jose, Calif., USA), 10,000 cells/well were counted, background fluorescence from the cell counts with no added laminin subtracted and the mean fluorescence intensity values reported. Graphed data are compiled from duplicate wells from each experiment with a minimum of three separate experiments, unless indicated otherwise.
A general note: Flow cytometry measures light scatter and fluorescence of single cells or particles in a stream.

In experiment [2] the test system is LN18 human glioma cells. Described as above. It is filed as cell-based.
Excerpt: as §1, §2

In experiment [3] the test system is MEpG MECs (DG−/− or DG+). Briefly: Laminin internalization in dystroglycan-deleted or re-expressing cells, flow cytometry. The format is cell-based, mouse. The note with it: n=6. An excerpt: Genetic manipulation of laminin receptor expression was employed in order to identify the specific receptor(s) mediating laminin internalization. […] To test the role of DG in laminin internalization, an MEC cell line containing an engineered dystroglycan deletion (MEpG) was used (Weir M L et al, 2006 supra). The MEpG cell line was infected with retroviral empty vector (creating control DG−/− cells) or retrovirus expressing DG (creating DG+ cells). Immunoblotting confirmed the expected presence or absence of DG expression in these cell types (FIG. 11A). […] The compiled mean fluorescence intensity (MFI) data of cells expressing DG was nearly four-fold higher than cells lacking DG expression (DG+=18.04±4.6; DG−/−=4.84±1.43, n=6, FIG. 7C). Therefore, the majority of laminin internalization observed in functionally normal mammary epithelial cells appeared to depend on dystroglycan function.
Cell culture—Primary mammary epithelial cells from control or ΔDGK14-Cre mid-pregnant mice were obtained as previously described (Weir et al, 2006 supra). DG-knockout (MEpG and MEpL cells), and WT E3D1 mammary epithelial cells were established as described previously (Weir et al, 2006 supra) from floxed-DG mice. β1 int-knockout (E3D1 cre19) MECs were established from floxed -β1 int primary MECS, as above. MECs were grown in DME/F12, 2% FBS, 10 μg/ml insulin and 5 ng/ml EGF (BD Biosciences, San Jose, Calif., USA). Human DG, β1 int, or wedge β1 int genes (Luo B H et al, Proc Natl Acad Sci USA 102, 3679-3684 (2005); incorporated by reference herein) were cloned into the retroviral expression vector, pBMN-IRES-PURO as described previously (Weir et al, 2006 supra) and verified by sequencing. […] These cultures produced >95% astrocytes as determined by staining with GFAP astrocyte marker antibody.
Flow Cytometry—Cells were plated in 12 well plates at 200,000 cells/well. […] Using a BD FACScan flow cytometer (BD Biosciences, San Jose, Calif., USA), 10,000 cells/well were counted, background fluorescence from the cell counts with no added laminin subtracted and the mean fluorescence intensity values reported. […]

Regarding “Rhod-Ln: laminin-111 labeled with NHS-rhodamine; dystroglycan binding reagent”, the “increase in MFI of internalized laminin, LARGE vs vector” value came out at 68 fold in experiment [1] (MDA-MB-231) and 10 fold in experiment [2] (LN18). Also, the “MFI of internalized laminin, LARGE expressing cells” value in experiment [1] (MDA-MB-231 LARGE, Rhod-Ln 18 hours, n=3) is 6.82 +/−0.241; in experiment [2] (LN18 LARGE, n=3), 1.49±0.049. Further, the “MFI of internalized laminin, vector cells” value is reported as 0.1+/−0.014 in experiment [1] (MDA-MB-231 empty vector, Rhod-Ln 18 hours, n=3) and 0.145±0.155 in experiment [2] (LN18 empty vector, n=3). In experiment [3] (cells expressing DG, 18 hours), the “MFI of internalized laminin, DG+ cells” value amounted to 18.04±4.6. The “MFI of internalized laminin, DG−/− cells” value in experiment [3] (cells lacking DG, 18 hours) was determined as 4.84±1.43. Besides, the “more laminin internalized by DG+ MECs than DG−/− MECs” value in experiment [3] (compiled MFI) came out at 380%.
